The text below walks through data of ChEMBL document CHEMBL3112492, “Antiprotozoan lead discovery by aligning dry and wet screening: prediction, synthesis, and biological assay of novel quinoxalinones” (Bioorg Med Chem, 2014).

Data set [1] concerns Trichomonas vaginalis. The data set is described as follows: Trichomonastatic activity against Trichomonas vaginalis JH31A at 10 ug/ml after 24 hrs by Neubauer chamber analysis relative to control. It counts as functional.
Data set [2] is described as follows: Inhibition of ferriprotoporphyrin-9 biocrystallization by micro-ELISA. Background: An ELISA detects its analyte on a solid surface through an enzyme-linked reagent.
The subject of data set [3] is Trichomonas vaginalis. As to the kind of experiment: Trichomonacidal activity against Trichomonas vaginalis JH31A at 100 ug/ml after 48 hrs by Neubauer chamber analysis relative to control. It counts as functional.
Data set [4] deals with Trichomonas vaginalis. As to the kind of experiment: Trichomonastatic activity against Trichomonas vaginalis JH31A at 1 ug/ml after 48 hrs by Neubauer chamber analysis relative to control. It counts as functional.
The subject of another data set is Leishmania braziliensis. As to the kind of experiment: Antiprotozoal activity against metacyclic promastigote stage of Leishmania braziliensis MHOM/PE/95/LQ2 assessed as growth inhibition after 72 hrs by Alamar Blue assay. It counts as functional, organism-based. The conditions noted are these: for IC50: MHOM/PE/95/LQ2, 72 h.
The subject of data set [5] is Trichomonas vaginalis. As to the kind of experiment: Trichomonastatic activity against Trichomonas vaginalis JH31A at 1 ug/ml after 24 hrs by Neubauer chamber analysis relative to control. It counts as functional.
The test system of the next data set is Acanthamoeba castellanii. The data set is described as follows: Antiprotozoal activity against trophozoite stage of Acanthamoeba castellanii Neff ATCC 30010 after 72 to 120 hrs by Alamar Blue assay. It counts as functional. The conditions noted are these: Acanthamoeba castellanii str. Neff. A general note: Alamar Blue is a resazurin reagent that responds to reducing activity.

Data set [6] relates to Trypanosoma cruzi. As to the kind of experiment: Trypanocidal activity against epimastigote stage of Trypanosoma cruzi CL Brener at 100 ug/mL after 72 hrs by beta-galactosidase reporter gene assay relative to control. It counts as functional. (In general: Reporter assays use an easily measured gene product as a stand-in for the process of interest.)
The test system of data set [7] is Trichomonas vaginalis. The data set is described as follows: Trichomonastatic activity against Trichomonas vaginalis JH31A at 10 ug/ml after 48 hrs by Neubauer chamber analysis relative to control. It counts as functional.
The test system of data set [8] is Trypanosoma cruzi. The data set is described as follows: Trypanocidal activity against epimastigote stage of Trypanosoma cruzi CL Brener at 1 ug/mL after 72 hrs by beta-galactosidase reporter gene assay relative to control. It counts as functional.
Data set [9] concerns J774. As to the kind of experiment: Cytotoxicity against mouse J774 cells at 100 ug/mL after 24 hrs by MTT assay. The following applies: j774, 24 h. It counts as cell-based.
In data set [10] the test system is Trichomonas vaginalis. The data set is described as follows: Trichomonacidal activity against Trichomonas vaginalis JH31A at 100 ug/ml after 24 hrs by Neubauer chamber analysis relative to control. It counts as functional.
The subject of a further data set is Plasmodium falciparum. As to the kind of experiment: Antimalarial activity against intraerythrocytic asexual stage of Plasmodium falciparum 3D7 assessed as inhibition of [G-3H]-hypoxanthine uptake by semiautomated microdilution method. It counts as functional, organism-based.
The test system of data set [11] is J774. As to the kind of experiment: Cytotoxicity against mouse J774 cells at 10 ug/mL after 24 hrs by MTT assay. It counts as cell-based. The conditions noted are these: j774, 24 h.
Data set [12] has as its system Trypanosoma cruzi. The data set is described as follows: Trypanocidal activity against epimastigote stage of Trypanosoma cruzi CL Brener at 10 ug/mL after 72 hrs by beta-galactosidase reporter gene assay relative to control. It counts as functional.
Data set [13] has as its system J774. As to the kind of experiment: Cytotoxicity against mouse J774 cells at 1 ug/mL after 24 hrs by MTT assay. It counts as cell-based. The conditions noted are these: j774, 24 h.
The test system of data set [14] is Toxoplasma gondii. As to the kind of experiment: Antiprotozoal activity against tachyzoite stage of Toxoplasma gondii RH assessed as viability at 500 uM after 4 hrs by trypan blue exclusion assay relative to control. It counts as functional.
In data set [15] the test system is Toxoplasma gondii. The data set is described as follows: Antiprotozoal activity against tachyzoite stage of Toxoplasma gondii RH assessed as viability at 1 mM after 4 hrs by trypan blue exclusion assay relative to control. It counts as functional.
Data set [16] deals with Toxoplasma gondii. The data set is described as follows: Antiprotozoal activity against tachyzoite stage of Toxoplasma gondii RH assessed as viability at 200 uM after 4 hrs by trypan blue exclusion assay relative to control. It counts as functional.
Data set [17] has as its system Toxoplasma gondii. As to the kind of experiment: Antiprotozoal activity against tachyzoite stage of Toxoplasma gondii RH assessed as viability at 100 uM after 4 hrs by trypan blue exclusion assay relative to control. It counts as functional.
The subject of data set [18] is Trichomonas vaginalis. As to the kind of experiment: Trichomonacidal activity against Trichomonas vaginalis JH31A at 10 ug/ml after 24 hrs by Neubauer chamber analysis relative to control. It counts as functional.
For data set [19], the system named is Toxoplasma gondii. The data set is described as follows: Antiprotozoal activity against tachyzoite stage of Toxoplasma gondii RH assessed as extrusion of cytoplasmic content by light microscopic analysis. It counts as functional, organism-based.

In brackets after ≈: the same amount, converted by molar mass. Activity calls are given as the source filed them. No cut-off for these calls is given here.

For orientation: IC50 means the point on the concentration scale where inhibition reaches its midpoint. `Br.CN1C(=O)CN(CCCCCN2CCc3ccccc3C2)c2ccc([N+](=O)[O-])cc21`: the Activity amounted to 70.98% with Trichomonas vaginalis [1]; 100% with Trichomonas vaginalis [3]; 4.1% in the data set on Trichomonas vaginalis [4]; 4.71% in the data set with Trichomonas vaginalis [5]; 19.78% in the data set with Trypanosoma cruzi [6]; 23.28% in the data set with Trichomonas vaginalis [7]. The Activity in the data set on Trypanosoma cruzi [8] is given as 11.77%; in the data set on J774 [9], 99.44%; in the data set on Trichomonas vaginalis [10], 100%; with J774 [11], 24.44%; in the data set with Trypanosoma cruzi [12], 15.62%. Moreover, the 50% inhibitory concentration (IC50) is 950 µg/mL in data set [2] and 6.47 µg/mL in the data set with Plasmodium falciparum. Besides, in the data set with Leishmania braziliensis, the “growth inhibition (GI)” value is “inactive”. Further, the outcome in the data set with Acanthamoeba castellanii was inactive.
With `Br.O=C1CN(CCCCCN2CCc3ccccc3C2)c2ccc([N+](=O)[O-])cc2N1`, the Activity in the data set with Trichomonas vaginalis [1] is 83.76%; in the data set on J774 [13] it was 9.89%; with Trichomonas vaginalis [3] it was 100%; in the data set on Trichomonas vaginalis [4] it was 0%; in the data set with Trichomonas vaginalis [5], 3.53%; in the data set on Trypanosoma cruzi [6], 87.83%. The Activity is 44.06% in the data set with Trichomonas vaginalis [7]; 12.49% with Trypanosoma cruzi [8]; 100% with J774 [9]; 100% in the data set with Trichomonas vaginalis [10]; 13.25% in the data set on J774 [11]; 56.77% in the data set on Trypanosoma cruzi [12]. The IC50 in [2] was 1530 µg/mL; in the data set with Leishmania braziliensis it was 31.3 µg/mL; in the data set on Plasmodium falciparum, over 10 µg/mL. Besides, the “growth inhibition (GI)” value in the data set with Leishmania braziliensis is “Dose-dependent effect”. The result in the data set with Acanthamoeba castellanii was inactive.
For the compound `Br.CN1C(=O)CN(CCCCCN2CCCC2)c2ccc([N+](=O)[O-])cc21`, the IC50 is over 2000 µg/mL in data set [2], 5.3 µg/mL in the data set with Leishmania braziliensis and over 10 µg/mL in the data set on Plasmodium falciparum. Moreover, the Activity in the data set on J774 [13] is reported as 0%; in the data set on Trichomonas vaginalis [3] it was 100%; in the data set on Trichomonas vaginalis [4] it was 4.1%; with Trichomonas vaginalis [5], 0%; in the data set on Toxoplasma gondii [14], 58%; in the data set with Trypanosoma cruzi [6], 6.36%. For the same compound, the Activity with Trichomonas vaginalis [7] was found to be 67.7%; with Trypanosoma cruzi [8], 0%; in the data set with Toxoplasma gondii [15], 38%; with J774 [9], 49.25%; in the data set with Trichomonas vaginalis [10], 100%; in the data set on Toxoplasma gondii [16], 84%. Moreover, the Activity in the data set with J774 [11] worked out at 0%; with Trypanosoma cruzi [12] it was 2.51%; in the data set on Toxoplasma gondii [17], 89%; in the data set with Trichomonas vaginalis [18], 89.25%. Moreover, in the data set with Leishmania braziliensis, the “growth inhibition (GI)” value is “Dose-dependent effect”. Also, the outcome in the data set on Acanthamoeba castellanii was inactive.
As for `Br.O=C1CN(CCCCCN2CCCCCC2)c2ccc([N+](=O)[O-])cc2N1`, the Activity with Trichomonas vaginalis [1] came to 12.94%; in the data set on J774 [13], 0%; in the data set with Trichomonas vaginalis [3] it was 100%; in the data set with Trichomonas vaginalis [4], 0%; in the data set on Trichomonas vaginalis [5], 2.35%; in the data set with Toxoplasma gondii [14] it was 0%. The Activity turned out to be 97.73% in the data set on Trypanosoma cruzi [6]; 0% in the data set with Trichomonas vaginalis [7]; 8.35% in the data set with Trypanosoma cruzi [8]; 0% in the data set on Toxoplasma gondii [15]; 59.14% in the data set on J774 [9]; 100% with Trichomonas vaginalis [10]. In addition, the Activity in the data set on Toxoplasma gondii [16] was found to be 82%; in the data set with J774 [11], 5.78%; with Trypanosoma cruzi [12], 23.84%; in the data set on Toxoplasma gondii [17] it was 88%. The IC50 in data set [2] is over 2000 µg/mL; in the data set on Leishmania braziliensis it was 39.3 µg/mL; in the data set on Plasmodium falciparum, 5.72 µg/mL. Also, the “growth inhibition (GI)” value in the data set with Leishmania braziliensis was “Dose-dependent effect”. Besides, the outcome with Acanthamoeba castellanii was inactive. Also, in the data set on Toxoplasma gondii [19], the result was Active.
In data set [2], `CCN(CC)CCCC(C)Nc1ccnc2cc(Cl)ccc12` (centres undefined) [CHLOROQUINE] gave an IC50 of 40 µg/mL (≈ 125 µM).
`Br.O=C1CN(CCCCCN2CCCCC2)c2ccc([N+](=O)[O-])cc2N1`: the Activity with Trichomonas vaginalis [1] was determined as 20.94%; in the data set with J774 [13] it was 0%; with Trichomonas vaginalis [3], 100%; with Trichomonas vaginalis [4], 0%; with Trichomonas vaginalis [5], 0%; in the data set on Toxoplasma gondii [14] it was 0%. The Activity in the data set with Trypanosoma cruzi [6] amounted to 82.4%; in the data set with Trichomonas vaginalis [7] it was 5.74%; with Trypanosoma cruzi [8], 1.78%; in the data set on Toxoplasma gondii [15], 0%; in the data set with J774 [9], 3.36%; with Trichomonas vaginalis [10], 99.37%. Besides, the Activity in the data set on Toxoplasma gondii [16] came out at 68%; in the data set with J774 [11], 0%; in the data set on Trypanosoma cruzi [12], 17.68%; with Toxoplasma gondii [17] it was 92%. The 50% inhibitory concentration (IC50) was over 2000 µg/mL in data set [2], 64.6 µg/mL in the data set with Leishmania braziliensis and over 10 µg/mL in the data set on Plasmodium falciparum. The “growth inhibition (GI)” value in the data set on Leishmania braziliensis is “Dose-dependent effect”. In addition, the outcome with Acanthamoeba castellanii was inactive. Also, the outcome in the data set with Toxoplasma gondii [19] was Active.
For the compound `CC1CS(=O)(=O)CCN1/N=C/c1ccc([N+](=O)[O-])o1` (centres undefined) [NIFURTIMOX], the Activity turned out to be 0% in the data set with J774 [13]; 98.73% with Trypanosoma cruzi [6]; 75.5% in the data set with Trypanosoma cruzi [8]; 25.9% with J774 [9]; 0.6% in the data set with J774 [11]; 90% in the data set with Trypanosoma cruzi [12].
In the case of `Br.CN(C)CCCCCN1CC(=O)N(C)c2cc([N+](=O)[O-])ccc21`, the Activity in the data set with Trichomonas vaginalis [1] is 45.71%; in the data set with Trichomonas vaginalis [3], 100%; in the data set with Trichomonas vaginalis [4] it was 0%; in the data set with Trichomonas vaginalis [5] it was 8.98%; in the data set with Toxoplasma gondii [14], 93%; with Trichomonas vaginalis [7] it was 11.26%. In addition, the Activity in the data set with Toxoplasma gondii [15] was determined as 81%; in the data set with Trichomonas vaginalis [10], 100%; with Toxoplasma gondii [16] it was 90%; in the data set on Toxoplasma gondii [17], 81%. The IC50 is over 2000 µg/mL in [2], 8.15 µg/mL in the data set on Leishmania braziliensis and over 10 µg/mL with Plasmodium falciparum. Moreover, the “growth inhibition (GI)” value with Leishmania braziliensis was “Dose-dependent effect”. In the data set with Acanthamoeba castellanii, the result was inactive.
For the compound `Br.CN1C(=O)CN(CCCCCN2CCCCC2)c2ccc([N+](=O)[O-])cc21`, the IC50 is over 2000 µg/mL in data set [2], 9.57 µg/mL in the data set on Leishmania braziliensis and over 10 µg/mL in the data set on Plasmodium falciparum. In addition, the Activity with Trichomonas vaginalis [3] is on record as 100%; with Trichomonas vaginalis [4], 0%; in the data set with Trichomonas vaginalis [5] it was 0%; in the data set on Toxoplasma gondii [14], 40%; in the data set on Trypanosoma cruzi [6], 79.12%; in the data set with Trichomonas vaginalis [7] it was 86.52%. The Activity is 7.93% in the data set on Trypanosoma cruzi [8]; 36% in the data set with Toxoplasma gondii [15]; 61.38% in the data set with J774 [9]; 100% in the data set on Trichomonas vaginalis [10]; 90% in the data set on Toxoplasma gondii [16]; 11.57% with J774 [11]. The Activity is on record as 60.68% with Trypanosoma cruzi [12], 96% in the data set on Toxoplasma gondii [17] and 92.63% with Trichomonas vaginalis [18]. The “growth inhibition (GI)” value with Leishmania braziliensis is “Dose-dependent effect”. Moreover, the result with Acanthamoeba castellanii was inactive.
